# Laboratory results reported in US20260250318A1, “COMPOSITIONS AND METHODS FOR CROSSING THE BLOOD BRAIN BARRIER” (VOYAGER THERAPEUTICS, INC., priority 2022, published 2026).
# Assays:
# [1] = system: brains, heart, liver, muscle, and DRG of the NHPs; assay: Maturation of TTM-001 and TTM-002 capsids, NGS enrichment in NHP tissues; type: in vivo; details: relative to AAV9 control
# How it was run: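 Variants carry mutations within and flanking the loop IV peptide insert: positions 450–466 were triplet-randomized, while positions 449–466 received low-frequency point mutations. The combined pool went into two NHPs, and each peptide was scored by NGS enrichment ratio against AAV9.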
# [2] = system: brain; assay: Matured TTM-001 and TTM-002 variants, NGS enrichment in mouse brain; type: in vivo, mice; details: relative to AAV9 control
# [3] = NGS fold-enrichment, DRG of NHPs
# [4] = NGS fold-enrichment, RNA, brain of NHPs
# [5] = NGS fold-enrichment, heart of NHPs
# [6] = NGS fold-enrichment, liver DNA of NHPs
# [7] = NGS fold-enrichment, liver RNA of NHPs
# [8] = NGS fold-enrichment, muscle of NHPs
# [9] = NGS fold-enrichment, brain of mice
# [10] = NGS fold-enrichment of RNA, NHP brain
# [11] = NGS fold-enrichment, NHP liver DNA
# [12] = NGS fold-enrichment, NHP liver RNA
# [13] = NGS fold-enrichment, NHP muscle
# [14] = NGS fold-enrichment, mouse brain
# [15] = NGS fold-enrichment of matured AAV capsid variants, NHP brain, RNA
Sequence,"Fold Enrichment relative to AAV9, DRG (NHP) [1, 3]","Fold Enrichment relative to AAV9, Brain (NHP) [1, 4]","Fold Enrichment relative to AAV9, Heart (NHP) [1, 5]","Fold Enrichment relative to AAV9, Liver DNA (NHP) [1, 6]","Fold Enrichment relative to AAV9, Liver RNA (NHP) [1, 7]","Fold Enrichment relative to AAV9, Muscle (NHP) [1, 8]","Fold Enrichment relative to AAV9, Brain (Mouse) [2, 9]","Fold Enrichment relative to AAV9, Brain (NHP) [1, 10]","Fold Enrichment relative to AAV9, DRG (NHP) ([1]; NGS fold-enrichment, NHP DRG)","Fold Enrichment relative to AAV9, Heart (NHP) ([1]; NGS fold-enrichment, NHP heart)","Fold Enrichment relative to AAV9, Liver DNA (NHP) [1, 11]","Fold Enrichment relative to AAV9, Liver RNA (NHP) [1, 12]","Fold Enrichment relative to AAV9, Muscle (NHP) [1, 13]","Fold Enrichment relative to AAV9, Brain (Mouse) [2, 14]",also measured
KTINGSGSPHSKAHNQQR,0.562 fold,74.272 fold,0.486 fold,0.057 fold,0.956 fold,0.047 fold,107.301 fold,–,–,–,–,–,–,–,–
KTINGNGSPHSKAQNPLT,0.000 fold,75.269 fold,0.000 fold,0.000 fold,0.366 fold,0.000 fold,53.583 fold,75.269 fold,0.000 fold,0.000 fold,0.000 fold,0.366 fold,0.000 fold,53.583 fold,–
KTINGGGSPHSKAQSQQI,0.000 fold,74.264 fold,0.000 fold,0.235 fold,0.000 fold,0.000 fold,67.651 fold,–,–,–,–,–,–,–,–
KTINGSGSPHSKAQVPST,–,–,–,–,–,–,–,–,–,–,–,–,–,–,"Fold Enrichment relative to AAV9, Brain (NHP) [1, 15]: 54.366 fold; Fold Enrichment relative to AAV9, DRG (NHP) ([1]; NHP DRG): 0.000 fold; Fold Enrichment relative to AAV9, Heart (NHP) ([1]; NHP heart): 1.001 fold; Fold Enrichment relative to AAV9, Liver DNA (NHP) ([1]; NHP liver, DNA): 0.139 fold; Fold Enrichment relative to AAV9, Liver RNA (NHP) ([1]; NHP liver, RNA): 0.202 fold; Fold Enrichment relative to AAV9, Muscle (NHP) ([1]; NHP muscle): 0.000 fold; Fold Enrichment relative to AAV9, Brain (Mouse) ([2]; mouse brain): 117.223 fold"
KTINGGGSPHSKAQNQLI,0.000 fold,83.881 fold,0.000 fold,0.387 fold,0.046 fold,0.000 fold,78.383 fold,83.881 fold,0.000 fold,0.000 fold,0.387 fold,0.046 fold,0.000 fold,78.383 fold,–
KTEGISGSPHSKAQNQQT,–,–,–,–,–,–,–,–,–,–,–,–,–,–,"Fold Enrichment relative to AAV9, Brain (NHP) [1, 15]: 53.270 fold; Fold Enrichment relative to AAV9, DRG (NHP) ([1]; NHP DRG): 0.000 fold; Fold Enrichment relative to AAV9, Heart (NHP) ([1]; NHP heart): 0.000 fold; Fold Enrichment relative to AAV9, Liver DNA (NHP) ([1]; NHP liver, DNA): 0.010 fold; Fold Enrichment relative to AAV9, Liver RNA (NHP) ([1]; NHP liver, RNA): 0.000 fold; Fold Enrichment relative to AAV9, Muscle (NHP) ([1]; NHP muscle): 0.000 fold; Fold Enrichment relative to AAV9, Brain (Mouse) ([2]; mouse brain): 78.303 fold"
KEINGRGSPHSKAQNQQT,0.239 fold,134.390 fold,0.000 fold,0.232 fold,0.000 fold,0.000 fold,52.311 fold,134.390 fold,0.239 fold,0.000 fold,0.232 fold,0.000 fold,0.000 fold,52.311 fold,–
KTINGTGSPHSKAQNHQI,0.171 fold,77.089 fold,0.000 fold,0.166 fold,0.000 fold,0.000 fold,54.281 fold,77.089 fold,0.171 fold,0.000 fold,0.166 fold,0.000 fold,0.000 fold,54.281 fold,–
KTINGTGSPHSKAQNQQM,0.000 fold,62.151 fold,0.000 fold,0.000 fold,0.000 fold,0.000 fold,62.376 fold,–,–,–,–,–,–,–,–
KTINGRGSPHKRGQNQQT,–,–,–,–,–,–,–,120.889 fold,0.100 fold,0.814 fold,0.614 fold,0.458 fold,0.434 fold,13.988 fold,–
KTENASGSPHSKAQNQQT,–,–,–,–,–,–,–,–,–,–,–,–,–,–,"Fold Enrichment relative to AAV9, Brain (NHP) [1, 15]: 58.187 fold; Fold Enrichment relative to AAV9, DRG (NHP) ([1]; NHP DRG): 0.000 fold; Fold Enrichment relative to AAV9, Heart (NHP) ([1]; NHP heart): 0.038 fold; Fold Enrichment relative to AAV9, Liver DNA (NHP) ([1]; NHP liver, DNA): 0.129 fold; Fold Enrichment relative to AAV9, Liver RNA (NHP) ([1]; NHP liver, RNA): 0.371 fold; Fold Enrichment relative to AAV9, Muscle (NHP) ([1]; NHP muscle): 0.000 fold; Fold Enrichment relative to AAV9, Brain (Mouse) ([2]; mouse brain): 88.439 fold"
KTINGSGSPHSKNQWQQT,–,–,–,–,–,–,–,–,–,–,–,–,–,–,"Fold Enrichment relative to AAV9, Brain (NHP) [1, 15]: 50.800 fold; Fold Enrichment relative to AAV9, DRG (NHP) ([1]; NHP DRG): 0.000 fold; Fold Enrichment relative to AAV9, Heart (NHP) ([1]; NHP heart): 0.044 fold; Fold Enrichment relative to AAV9, Liver DNA (NHP) ([1]; NHP liver, DNA): 0.324 fold; Fold Enrichment relative to AAV9, Liver RNA (NHP) ([1]; NHP liver, RNA): 0.111 fold; Fold Enrichment relative to AAV9, Muscle (NHP) ([1]; NHP muscle): 0.047 fold; Fold Enrichment relative to AAV9, Brain (Mouse) ([2]; mouse brain): 65.506 fold"
KTERLSGSPHSKAQNQQT,0.000 fold,95.857 fold,0.004 fold,0.260 fold,0.126 fold,0.005 fold,102.372 fold,95.857 fold,0.000 fold,0.004 fold,0.260 fold,0.126 fold,0.005 fold,102.372 fold,–
KTTNGQDSPHKSGQNQQS,–,–,–,–,–,–,–,92.419 fold,0.000 fold,0.037 fold,0.079 fold,0.000 fold,0.043 fold,7.592 fold,–
